Measured values taken from publication PMC12483148 (2025).

Assays:
Assay in all cases: BLI, steady state fit
[1] = tested on: TPP riboswitch (3'-biotinylated) (RNA, riboswitch) CAGUACUCGGGGUGCCCUUCUGCGUGAAGGCUGAGAAAUACCCGUAUCACCUGAUCUGGAUAAUGCCAGCGUAGGGAAGUGCUG; conditions: 150 mM Na+, 2 mM Mg2+, 10 mM HEPES pH 7.4, 0.005% Surfactant P20, RNA immobilised
[2] = tested on: FMN riboswitch (3'-biotinylated) (RNA, riboswitch) GAUCUUCAGGGCGGGGUGAAAUUCCCCACCGGCGGUACAGCCCGCGAGCCCAGGAAACUGGGCAGACUUGGUGAAACUCCAAGGCCGACAGUAAAGUCUGGAUGAAAGAAGAUC; conditions: 150 mM Na+, 2 mM Mg2+, RNA immobilised
[3] = tested on: SAM-I riboswitch (3'-biotinylated) (RNA, riboswitch) GGCUUAUCAAGAGAGGUGGAGGGACUGGCCCGACGAAACCCGGCAACCAGAAAUGGUGCCAAUUCCUGCAGCGGAAACGUUGAAAGAUGAGCCG; conditions: 150 mM Na+, 2 mM Mg2+, 10 mM HEPES pH 7.4, 0.005% Surfactant P20, RNA immobilised
[4] = 10 mM HEPES pH 7.4, 0.005% Surfactant P20

Cc1ncc(C[n+]2csc(CCO)c2C)c(N)n1
KD,stead ([1]; b29 says 10 μM): 7.0 µM

O=C(NCc1ccc[nH]1)c1ccc2[nH]cnc2c1
KD,stead ([2]; HBS-P+ pH 7.4, 5% DMSO, apparent): 14 µM

Cc1ncc(C[n+]2csc(CCOP(=O)(O)OP(=O)(O)O)c2C)c(N)n1
KD,stead ([1]; single measurement, low signal-to-noise): 0.016 µM

O=c1cc(-c2cccs2)nc(C2CCCNC2)[nH]1 (stereo not shown)
KD,stead [2, 4]: 48 µM

C[S+](CC[C@H](N)C(=O)O)C[C@H]1O[C@@H](n2cnc3c(N)ncnc32)[C@H](O)[C@@H]1O (stereo partly shown)
KD,stead [3]: 0.17 µM

Nc1ncnc2c1ncn2[C@@H]1O[C@H](CSCC[C@H](N)C(=O)O)[C@@H](O)[C@H]1O
KD,stead ([3]; highest concentration 500 μM): 545 µM

Cc1cc2nc3c(=O)[nH]c(=O)nc-3n(C[C@H](O)[C@H](O)[C@H](O)COP(=O)(O)O)c2cc1C
KD,stead [2, 4]: 0.043 µM
